Reference: US20090036384A1, “INCREASING PREGNANCY RATES” (PARNELL LABORATORIES (AUST) PTY LIMITED, priority 2005, published 2009)
Where two headings read alike, the source gives them in different places.

Tests used:
LH [1] = settings: in vivo; cited from earlier work
LH [2] = settings: exogenous GnRH; cited from earlier work
cows [3] = settings: cited from earlier work
[4] = literature study; cited from earlier work
[5] = Progesterone solubility trials; assay type: physicochemical
Experimental: The purpose of the formulation studies was to establish a product vehicle that was suitable for solubilisation of a relatively high concentration of Progesterone but in which Gonadorelin would be stable. […] Low solubility of Progesterone (even in organic solvents) further limited the choice of injectable organic vehicles.
Further Solubility Trials were conducted as follows: […]

[6] = Progesterone solubility and precipitation at low temperature (2-8° C.); assay type: physicochemical; settings: solubility study; most appropriate combination
Experimental: Since addition of acids reduced the amount of NMP available for dissolution of Progesterone, samples prepared with different acids were refrigerated at 2-8° C. to investigate progesterone solubility and the occurrence of precipitation at low temperatures. The appearance of crystals in samples prepared with formic and hydrochloric acid was obvious after several hours of refrigeration. Crystals appeared after 1-2 days in samples prepared with phosphoric acid. FTIR testing confirmed that the precipitate was crystalline progesterone, which was difficult to redissolve due to the crystalline form of the precipitate. At this stage a further search for vehicle that would provide sufficient progesterone solubility at low temperatures was conducted. […] A solubility study confirmed that the most appropriate combination was NMP+water+phosphoric acid with progesterone amount not exceeding 8-10% w/v.

cows [7] = settings: cited from earlier work; remark: listed apart in the source

C[C@]12CC[C@@H]3c4ccc(O)cc4CC[C@H]3[C@@H]1CC[C@@H]2OC(=O)CCC1CCCC1 [ECP, Estradiol Cypionate]
time of LH surge after administration (LH [1]): around 40 hours

CC(C)C[C@H](NC(=O)CNC(=O)[C@H](Cc1ccc(O)cc1)NC(=O)[C@H](CO)NC(=O)[C@H](Cc1c[nH]c2ccccc12)NC(=O)[C@H](Cc1cnc[nH]1)NC(=O)[C@@H]1CCC(=O)N1)C(=O)N[C@@H](CCCNC(=N)N)C(=O)N1CCC[C@H]1C(=O)NCC(N)=O [GnRH]
duration of GnRH-induced LH surge (LH [2]): 7 to 14 h
peak serum levels of LH (LH [2]): 9 to 22 ng/mL
ovulation rate (cows [3]; 25 μg of GnRH): dramatic reduction in ovulation rates
ovulation rate (cows [3]; 50 μg of GnRH): identical ovulation rate to 100 μg

CN1CCCC1=O [NMP, N-methyl-2-pyrrolidone]
pH of NMP [4]: approximately 11.5

CC(=O)[C@H]1CC[C@H]2[C@@H]3CCC4=CC(=O)CC[C@]4(C)[C@H]3CC[C@]12C [Progesterone]
Solubility of Progesterone ([5]; pure solvent PEG400): marginal
Solubility of Progesterone ([5]; pure solvent Propylene Glycol): marginal
Solubility of Progesterone ([5]; pure solvent Tetraglycol): marginal
progesterone amount in NMP+water+phosphoric acid [6]: 8-10 % w/v
average serum progesterone levels (cows [7]; beef cows primed via a used CIDR implant): 1.5 ng/mL
serum Progesterone levels that provide effective biological activity (cows [7]; in vivo): 1-3 ng/mL
follicle size (cows [7]; three days of progesterone treatment): 13.7 mm
